Measured values: the NIST ThermoML archive (doi:10.1021/je100089s)
Numbers after ± are expanded uncertainties.

Assays:
[1] = Liquid, Vibrating tube method
[2] = xn = mol fraction of the nth substance listed; conditions: Liquid, Vibrating tube method, x1 = 1

In the case of C[S+](C)[O-] [dimethyl sulfoxide], the mass density ([1]; 298.15 K, 101 kPa) is reported as 1095.36 ± 0.31 kg/m3, the mass density ([1]; 298.15 K, 10000 kPa) is reported as 1101.16 ± 0.35 kg/m3 and the mass density ([1]; 298.15 K, 25000 kPa) is reported as 1109.51 ± 0.42 kg/m3. For the same compound, the mass density ([1]; 298.15 K, 50000 kPa) was 1122.86 ± 0.57 kg/m3, the mass density ([1]; 308.15 K, 101 kPa) was 1085.36 ± 0.3 kg/m3 and the mass density ([1]; 308.15 K, 10000 kPa) was 1091.6 ± 0.34 kg/m3. For the same compound, the mass density ([1]; 308.15 K, 25000 kPa) was 1100.65 ± 0.41 kg/m3, the mass density ([1]; 308.15 K, 50000 kPa) was 1115.13 ± 0.54 kg/m3 and the mass density ([1]; 308.15 K, 75000 kPa) was 1128.21 ± 0.7 kg/m3. The mass density ([1]; 308.15 K, 100000 kPa) was 1136.76 ± 0.87 kg/m3, the mass density ([1]; 323.15 K, 101 kPa) was 1070.28 ± 0.29 kg/m3 and the mass density ([1]; 323.15 K, 10000 kPa) was 1076.9 ± 0.32 kg/m3. The mass density ([1]; 323.15 K, 25000 kPa) was 1086.87 ± 0.38 kg/m3, the mass density ([1]; 323.15 K, 50000 kPa) was 1102.44 ± 0.51 kg/m3 and the mass density ([1]; 323.15 K, 75000 kPa) was 1115.12 ± 0.66 kg/m3. It also gave a mass density ([1]; 323.15 K, 100000 kPa) of 1123.25 ± 0.81 kg/m3.

C[S+](C)[O-] [dimethyl sulfoxide] + OCCO gave a mass density ([2]; 298.15 K, 101 kPa) of 1095.36 ± 0.31 kg/m3, a mass density ([2]; 298.15 K, 10000 kPa) of 1101.16 ± 0.35 kg/m3 and a mass density ([2]; 298.15 K, 25000 kPa) of 1109.51 ± 0.42 kg/m3. The mass density ([2]; 298.15 K, 50000 kPa) was 1122.86 ± 0.57 kg/m3, the mass density ([2]; 308.15 K, 101 kPa) was 1085.36 ± 0.3 kg/m3 and the mass density ([2]; 308.15 K, 10000 kPa) was 1091.6 ± 0.34 kg/m3. For the same compound, the mass density ([2]; 308.15 K, 25000 kPa) was 1100.65 ± 0.41 kg/m3, the mass density ([2]; 308.15 K, 50000 kPa) was 1115.13 ± 0.54 kg/m3 and the mass density ([2]; 308.15 K, 75000 kPa) was 1128.21 ± 0.7 kg/m3. It also gave a mass density ([2]; 308.15 K, 100000 kPa) of 1136.76 ± 0.87 kg/m3, a mass density ([2]; 323.15 K, 101 kPa) of 1070.28 ± 0.29 kg/m3 and a mass density ([2]; 323.15 K, 10000 kPa) of 1076.9 ± 0.32 kg/m3. It also gave a mass density ([2]; 323.15 K, 25000 kPa) of 1086.87 ± 0.38 kg/m3, a mass density ([2]; 323.15 K, 50000 kPa) of 1102.44 ± 0.51 kg/m3 and a mass density ([2]; 323.15 K, 75000 kPa) of 1115.12 ± 0.66 kg/m3. The mass density ([2]; 323.15 K, 100000 kPa) was 1123.25 ± 0.81 kg/m3.

OCCO [1,2-ethanediol] showed a mass density ([1]; 278.15 K, 101 kPa) of 1123.77 ± 0.33 kg/m3, a mass density ([1]; 278.15 K, 10000 kPa) of 1127.65 ± 0.38 kg/m3 and a mass density ([1]; 278.15 K, 25000 kPa) of 1133.2 ± 0.47 kg/m3. The mass density ([1]; 278.15 K, 50000 kPa) was 1141.71 ± 0.62 kg/m3, the mass density ([1]; 278.15 K, 75000 kPa) was 1149.55 ± 0.78 kg/m3 and the mass density ([1]; 278.15 K, 100000 kPa) was 1157.24 ± 0.97 kg/m3. It also gave a mass density ([1]; 288.15 K, 10000 kPa) of 1120.87 ± 0.37 kg/m3, a mass density ([1]; 288.15 K, 25000 kPa) of 1126.51 ± 0.45 kg/m3 and a mass density ([1]; 288.15 K, 50000 kPa) of 1135.26 ± 0.6 kg/m3. It also gave a mass density ([1]; 288.15 K, 75000 kPa) of 1143.65 ± 0.76 kg/m3, a mass density ([1]; 288.15 K, 100000 kPa) of 1151.55 ± 0.94 kg/m3 and a mass density ([1]; 298.15 K, 10000 kPa) of 1113.97 ± 0.36 kg/m3. It also gave a mass density ([1]; 298.15 K, 25000 kPa) of 1119.78 ± 0.44 kg/m3, a mass density ([1]; 298.15 K, 50000 kPa) of 1128.78 ± 0.58 kg/m3 and a mass density ([1]; 298.15 K, 75000 kPa) of 1137.41 ± 0.74 kg/m3. The mass density ([1]; 298.15 K, 100000 kPa) was 1145.51 ± 0.91 kg/m3, the mass density ([1]; 308.15 K, 10000 kPa) was 1107.05 ± 0.36 kg/m3 and the mass density ([1]; 308.15 K, 25000 kPa) was 1112.97 ± 0.43 kg/m3. For the same compound, the mass density ([1]; 308.15 K, 50000 kPa) was 1122.28 ± 0.56 kg/m3, the mass density ([1]; 308.15 K, 75000 kPa) was 1131.41 ± 0.72 kg/m3 and the mass density ([1]; 308.15 K, 100000 kPa) was 1139.57 ± 0.88 kg/m3. It also gave a mass density ([1]; 323.15 K, 101 kPa) of 1092.12 ± 0.3 kg/m3, a mass density ([1]; 323.15 K, 50000 kPa) of 1112.75 ± 0.54 kg/m3 and a mass density ([1]; 323.15 K, 75000 kPa) of 1122.55 ± 0.68 kg/m3. For the same compound, the mass density ([1]; 323.15 K, 100000 kPa) was 1130.66 ± 0.84 kg/m3.
